From patent US6365629B1, “Fatty acid esters of aromatic alcohols and their use in cosmetic formulations” (Alto, Inc., priority 1999, dated 2002) come the findings set out here.

In data set [1] the test system is Skin. Nature of the data set: Dermal irritation study (primary irritation of the skin). The data set is classed as in vivo. The following applies: 0.5 ml/patch, 4 patches on each of 6 rabbits. The protocol: The test procedure employed is described as Local Toxicity, Primary Irritation of the Skin in “Appraisal of the Safety of Chemicals in Foods, Drugs and Cosmetics” published by the Food & Drug Officials of the United States.
The dose to test the response was 0.5 ml/patch with 4 patches on each of 6 rabbits. The results indicated a primary skin irritation index of 2.375.

Data set [2] relates to rabbit eyes. Nature of the data set: Eye irritation study. The data set is classed as in vivo, albino rabbits. Conditions: 0.1 ml instilled into one eye, nine rabbits. The procedure: The test procedure employed is described in the Appraisal of the Safety of Chemicals in Foods, Drugs and Cosmetics, published by the Association of Food and Drug Officials of the United States. Nine normal healthy albino rabbits were used for this study.
Each of the nine animals had 0.1 ml of the test material (benzyl linoleate) instilled into one eye of each test animal. The other eye was untreated and observed as a control. Two seconds after instillation of the test material, a washout was conducted in 3 of the rabbits using 20 ml. of warm water. Four seconds after test material instillation, washout was conducted in 3 additional rabbits using 20 ml. of warm water. All animals were examined frequently during the seven following days.

The test system of data set [3] is Rats. Nature of the data set: Oral LD50. Type of data set: in vivo. From the text: The test procedure employed is described in the “Appraisal of the Safety of Chemicals in Foods, Drugs and Cosmetics” published by the Food & Drug Officials of the United States.

With `CCCCC/C=C\C/C=C\CCCCCCCC(=O)OCc1ccccc1` [Benzyl Linoleate], in data set [1], the “primary skin irritation index” value was determined as 2.375 and the “skin irritation classification in this test system” value was “moderate irritant”. Also, the “eye irritation classification according to the reference” value in data set [2] is “non-irritating”. For the same compound, in data set [2] (with and without washout, observed seven days), the “irritation in rabbit eyes” value is on record as “no irritation”. Also, in data set [3] (rat, in vivo, po), the “Oral LD50” value worked out at 7.0 mL/kg. In data set [3] (rats, oral LD50 study), the “gross autopsy findings on dead animals” value was “hemorrhagic lungs, dark livers and spleens, slight hemorrhagic stomachs and intestines and pale kidneys”.
